Entries after “also recorded” stand apart in the source; their conditions may differ. Where two headings read alike, the source gives them in different places.
Columns and labels:
mGluR5 [1] = molecular target: T1, mGluR5 (Rattus norvegicus, UniProt P31424); details: mGluR5, Sp. Rn; cited from earlier work
mGluR1 [2] = molecular target: mGluR1 (Rattus norvegicus, UniProt P23385); details: mGluR1, Sp. Rn; cited from earlier work
mGluR1 [3] = molecular target: mGluR1 (Homo sapiens, UniProt Q13255); details: mGluR1, Sp. Hs; cited from earlier work
WT mGluR1α = molecular target: T2, WT mGluR1α (Rattus norvegicus, UniProt P23385); assay: Single cell Fura-2 [Ca^2+]i response in HEK293 cells transiently transfected with WT mGluR1α; assay type: cell-based; details: for Max. Res. to Ro 67-4853: normalized to maximal response of WT mGluR1α to L-Glu; for EC50: read-out: EC50 of Ro 67-4853
T2 construct: expressed in transfected cells; host or cells: HEK293
Description: The methods for measuring [Ca^2+]i responses were as described above. In the presence of (s)-MCPG, the cells were incubated with 0.5 mM (s)-MCPG in a saline buffer for 30 more minutes after Fura-2 loading.
Fura-2AM was used for monitoring [Ca^2+]i in real time as described above. […] Cells loaded with Fura-2AM were mounted onto a chamber perfused with saline buffer.

mGluR5 [4] = molecular target: mGluR5 (Homo sapiens, UniProt P41594); details: mGluR5, Sp. Hs; cited from earlier work
mGluR5 [5] = molecular target: T1, mGluR5; assay: Intracellular Ca^2+ response/oscillation in mGluR5 transfected HEK293 cells; assay type: cell-based; design: expressed in transfected cells; host or cells: HEK293; details: for Percentage of cells with oscillation as a response to L-Glu: low concentration of L-Glu
Description: HEK293 cells were fed on a Dulbecco's Modified Eagle Medium (DMEM) and 10% fetal bovine serum (Invitrogen) and cultured at 37° C. in a humidified incubator with 5% CO2. One day before transfection, HEK293 cells were grown on 22×44 mm coverslips and then were transfected with mGluR5 plasmid (received as a gift from Dr. Randy Hall, Emory University, Atlanta, Ga.) with the aid of lipofectamine 2000 (Invitrogen). mGluR5 transfected HEK293 cells were grown for 48 hours and then loaded with 4 µM Fura-2 AM in loading buffer containing 10 mM HEPES (pH 7.4), 140 mM NaCl, 5 mM KCl, 0.55 mM MgCl2 for 30 minutes at 37° C. The coverslips were then mounted in a bathing chamber on the stage of a fluorescence microscope. […] The ratio of fluorescence emitted at 510 nm resulting from excitation at 340 or 380 nm was analyzed to obtain the [Ca^2+]i response as a function of changes in [Ca^2+]o.
HEK293 cells were cultured and transfected as described above. Intracellular Ca^2+ concentration was recorded using the method as described previously. […]

mGluR1α D322I = molecular target: T3, mGluR1α D322I (Rattus norvegicus, UniProt P23385, D322I); assay: Single cell Fura-2 [Ca^2+]i response in HEK293 cells transfected with mGluR1α variant D322I; assay type: cell-based; details: HEK293, read-out: Maximal Response to L-Quis, D322I, normalized to maximal response of WT mGluR1α to L-Glu
T3 construct: expressed in transfected cells; host or cells: HEK293

mGluR1α D318I = molecular target: T4, mGluR1α D318I (Rattus norvegicus, UniProt P23385, D318I); assay: [^3H]-L-Quis binding to membranes of HEK293 cells expressing D318I; details: hypotonic buffer
T4 construct: expressed in transfected cells; host or cells: HEK293
Description: HEK293 cells transiently transfected with wild type mGluR1α or its mutants were maintained in a 5% CO2 37° C. incubator for an additional 48 hours as before. Cells were then collected in ice cold hypotonic buffer (20 mM HEPES, 100 mM NaCl, 5 mM MgCl2, 5 mM KCl, 0.5 mM EDTA, and 1% protease inhibitors at pH 7.0-7.5). The cell pellet was washed twice more using hypotonic buffer to remove the L-Glu in the cellular debris. The crude membrane protein (100 μg) was mixed with 30 nM [^3H]-L-Quis in 100 μL of hypotonic buffer. The nonspecific binding was determined by measuring bound [^3H]-L-Quis in the presence of 200 μM L-Glu. […] The reaction mixtures were incubated on ice for at least 1 hour, and the membrane-bound [^3H]-L-Quis was captured on filter paper using a Brandel cell harvester under vacuum. The filter paper was then transferred to scintillation fluid, and [^3H]-L-Quis was detected using a Beckman LS 6500 multi-purpose scintillation counter.

mGluR1α E325I = molecular target: T5, mGluR1α E325I (Rattus norvegicus, UniProt P23385, E325I); assay: Single cell Fura-2 [Ca^2+]i response in HEK293 cells transfected with mGluR1α variant E325I; assay type: cell-based; details: HEK293, read-out: Maximal Response to L-Quis, E325I, normalized to maximal response of WT mGluR1α to L-Glu
T5 construct: expressed in transfected cells; host or cells: HEK293
T5 sequence (P23385 19-1199 E325I): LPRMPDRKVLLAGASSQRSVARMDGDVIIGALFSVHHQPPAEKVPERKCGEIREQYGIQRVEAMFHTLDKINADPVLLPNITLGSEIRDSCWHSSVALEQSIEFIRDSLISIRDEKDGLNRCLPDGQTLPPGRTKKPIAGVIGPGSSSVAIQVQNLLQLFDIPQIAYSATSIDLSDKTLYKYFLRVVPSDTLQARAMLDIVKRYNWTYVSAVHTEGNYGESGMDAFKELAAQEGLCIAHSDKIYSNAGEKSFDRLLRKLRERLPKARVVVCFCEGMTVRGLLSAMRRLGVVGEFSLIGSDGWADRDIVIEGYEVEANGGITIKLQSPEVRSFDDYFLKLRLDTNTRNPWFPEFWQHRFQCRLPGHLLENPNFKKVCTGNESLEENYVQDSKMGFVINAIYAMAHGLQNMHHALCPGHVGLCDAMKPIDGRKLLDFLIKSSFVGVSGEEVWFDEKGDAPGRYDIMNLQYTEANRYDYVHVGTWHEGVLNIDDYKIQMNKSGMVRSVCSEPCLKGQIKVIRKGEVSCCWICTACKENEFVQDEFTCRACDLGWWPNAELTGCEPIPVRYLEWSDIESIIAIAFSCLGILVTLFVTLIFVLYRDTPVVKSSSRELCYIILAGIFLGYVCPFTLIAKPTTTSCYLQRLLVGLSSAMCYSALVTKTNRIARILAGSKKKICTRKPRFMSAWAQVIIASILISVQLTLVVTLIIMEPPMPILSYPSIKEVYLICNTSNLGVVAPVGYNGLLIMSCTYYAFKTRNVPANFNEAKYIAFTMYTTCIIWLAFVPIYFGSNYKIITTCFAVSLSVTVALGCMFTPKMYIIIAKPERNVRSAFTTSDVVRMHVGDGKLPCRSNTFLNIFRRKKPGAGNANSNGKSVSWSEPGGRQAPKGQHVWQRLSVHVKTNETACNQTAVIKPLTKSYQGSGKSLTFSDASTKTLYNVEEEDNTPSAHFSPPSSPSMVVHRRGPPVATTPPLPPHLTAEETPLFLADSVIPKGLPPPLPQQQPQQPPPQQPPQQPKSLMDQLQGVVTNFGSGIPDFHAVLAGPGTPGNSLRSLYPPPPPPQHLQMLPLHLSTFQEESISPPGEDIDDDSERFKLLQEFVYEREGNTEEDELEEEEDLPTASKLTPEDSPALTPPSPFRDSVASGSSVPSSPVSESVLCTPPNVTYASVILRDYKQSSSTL

T1 sequence (P31424 21-1203): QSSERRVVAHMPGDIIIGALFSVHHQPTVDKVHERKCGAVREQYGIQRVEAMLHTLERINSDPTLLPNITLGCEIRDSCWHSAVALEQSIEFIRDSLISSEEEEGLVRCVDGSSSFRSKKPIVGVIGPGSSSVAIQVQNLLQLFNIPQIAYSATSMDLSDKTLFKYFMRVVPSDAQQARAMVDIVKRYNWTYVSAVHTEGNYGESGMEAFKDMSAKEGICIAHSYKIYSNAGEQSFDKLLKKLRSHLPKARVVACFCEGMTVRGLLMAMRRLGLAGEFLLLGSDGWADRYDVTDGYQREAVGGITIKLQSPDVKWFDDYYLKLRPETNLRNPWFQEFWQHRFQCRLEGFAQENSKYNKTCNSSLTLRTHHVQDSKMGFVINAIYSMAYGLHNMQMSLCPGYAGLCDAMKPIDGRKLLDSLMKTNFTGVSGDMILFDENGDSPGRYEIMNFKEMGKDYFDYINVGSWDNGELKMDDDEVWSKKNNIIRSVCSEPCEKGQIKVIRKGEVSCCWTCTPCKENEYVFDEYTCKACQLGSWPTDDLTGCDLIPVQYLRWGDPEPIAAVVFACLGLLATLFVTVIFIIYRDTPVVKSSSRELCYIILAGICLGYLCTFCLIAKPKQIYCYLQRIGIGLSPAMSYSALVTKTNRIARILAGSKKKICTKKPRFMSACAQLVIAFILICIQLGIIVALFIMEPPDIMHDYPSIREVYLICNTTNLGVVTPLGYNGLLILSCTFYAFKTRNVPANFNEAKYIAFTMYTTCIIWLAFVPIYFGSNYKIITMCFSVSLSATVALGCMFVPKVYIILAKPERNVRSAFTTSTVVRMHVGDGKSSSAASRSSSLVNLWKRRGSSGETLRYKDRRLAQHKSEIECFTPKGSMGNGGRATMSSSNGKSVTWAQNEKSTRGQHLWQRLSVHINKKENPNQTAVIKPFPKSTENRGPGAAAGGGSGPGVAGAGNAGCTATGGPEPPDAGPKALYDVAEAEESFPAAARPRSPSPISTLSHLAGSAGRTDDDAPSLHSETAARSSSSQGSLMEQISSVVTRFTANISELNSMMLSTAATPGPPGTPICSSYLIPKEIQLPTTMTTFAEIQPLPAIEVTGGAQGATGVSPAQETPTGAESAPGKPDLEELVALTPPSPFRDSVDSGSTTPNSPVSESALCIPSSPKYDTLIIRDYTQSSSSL
Sequence of mGluR1 (Homo sapiens, UniProt Q13255) (Q13255 19-1194): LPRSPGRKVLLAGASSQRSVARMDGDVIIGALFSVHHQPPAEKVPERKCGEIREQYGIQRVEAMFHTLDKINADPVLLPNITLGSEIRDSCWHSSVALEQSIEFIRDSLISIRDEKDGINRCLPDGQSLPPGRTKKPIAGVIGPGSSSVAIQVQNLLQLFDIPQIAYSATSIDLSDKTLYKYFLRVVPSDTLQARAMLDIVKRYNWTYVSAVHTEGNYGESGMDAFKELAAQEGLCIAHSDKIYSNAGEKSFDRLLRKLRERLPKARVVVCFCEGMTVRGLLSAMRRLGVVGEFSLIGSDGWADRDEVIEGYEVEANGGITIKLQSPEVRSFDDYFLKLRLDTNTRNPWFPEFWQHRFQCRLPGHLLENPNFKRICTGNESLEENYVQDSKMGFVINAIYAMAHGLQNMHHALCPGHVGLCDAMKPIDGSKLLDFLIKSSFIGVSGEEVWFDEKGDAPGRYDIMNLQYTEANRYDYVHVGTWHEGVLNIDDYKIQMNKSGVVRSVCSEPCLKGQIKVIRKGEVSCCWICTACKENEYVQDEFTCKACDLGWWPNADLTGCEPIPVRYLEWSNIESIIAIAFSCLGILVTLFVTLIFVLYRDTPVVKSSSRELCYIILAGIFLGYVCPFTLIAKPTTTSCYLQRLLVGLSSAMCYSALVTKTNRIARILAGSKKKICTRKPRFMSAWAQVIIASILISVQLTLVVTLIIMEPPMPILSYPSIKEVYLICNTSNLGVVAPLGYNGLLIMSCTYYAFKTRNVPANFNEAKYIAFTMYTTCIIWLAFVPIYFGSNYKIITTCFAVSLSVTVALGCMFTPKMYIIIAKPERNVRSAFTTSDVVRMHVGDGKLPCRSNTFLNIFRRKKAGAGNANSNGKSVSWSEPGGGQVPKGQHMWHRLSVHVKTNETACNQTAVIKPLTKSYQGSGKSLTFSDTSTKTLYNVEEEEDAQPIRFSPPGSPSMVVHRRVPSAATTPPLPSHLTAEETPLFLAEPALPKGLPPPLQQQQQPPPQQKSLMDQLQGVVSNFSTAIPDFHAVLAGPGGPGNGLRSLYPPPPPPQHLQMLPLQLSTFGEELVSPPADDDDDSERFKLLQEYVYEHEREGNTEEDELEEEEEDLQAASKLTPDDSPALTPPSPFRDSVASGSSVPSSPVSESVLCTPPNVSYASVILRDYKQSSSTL
T2 sequence (P23385 19-1199): as the sequence (P23385 19-1199 E325I) above, with I307E counted along it
Sequence of mGluR1 (Rattus norvegicus, UniProt P23385) (P23385 19-1199): as the sequence (P23385 19-1199 E325I) above, with I307E counted along it
Sequence of mGluR5 (Homo sapiens, UniProt P41594) (P41594 21-1212): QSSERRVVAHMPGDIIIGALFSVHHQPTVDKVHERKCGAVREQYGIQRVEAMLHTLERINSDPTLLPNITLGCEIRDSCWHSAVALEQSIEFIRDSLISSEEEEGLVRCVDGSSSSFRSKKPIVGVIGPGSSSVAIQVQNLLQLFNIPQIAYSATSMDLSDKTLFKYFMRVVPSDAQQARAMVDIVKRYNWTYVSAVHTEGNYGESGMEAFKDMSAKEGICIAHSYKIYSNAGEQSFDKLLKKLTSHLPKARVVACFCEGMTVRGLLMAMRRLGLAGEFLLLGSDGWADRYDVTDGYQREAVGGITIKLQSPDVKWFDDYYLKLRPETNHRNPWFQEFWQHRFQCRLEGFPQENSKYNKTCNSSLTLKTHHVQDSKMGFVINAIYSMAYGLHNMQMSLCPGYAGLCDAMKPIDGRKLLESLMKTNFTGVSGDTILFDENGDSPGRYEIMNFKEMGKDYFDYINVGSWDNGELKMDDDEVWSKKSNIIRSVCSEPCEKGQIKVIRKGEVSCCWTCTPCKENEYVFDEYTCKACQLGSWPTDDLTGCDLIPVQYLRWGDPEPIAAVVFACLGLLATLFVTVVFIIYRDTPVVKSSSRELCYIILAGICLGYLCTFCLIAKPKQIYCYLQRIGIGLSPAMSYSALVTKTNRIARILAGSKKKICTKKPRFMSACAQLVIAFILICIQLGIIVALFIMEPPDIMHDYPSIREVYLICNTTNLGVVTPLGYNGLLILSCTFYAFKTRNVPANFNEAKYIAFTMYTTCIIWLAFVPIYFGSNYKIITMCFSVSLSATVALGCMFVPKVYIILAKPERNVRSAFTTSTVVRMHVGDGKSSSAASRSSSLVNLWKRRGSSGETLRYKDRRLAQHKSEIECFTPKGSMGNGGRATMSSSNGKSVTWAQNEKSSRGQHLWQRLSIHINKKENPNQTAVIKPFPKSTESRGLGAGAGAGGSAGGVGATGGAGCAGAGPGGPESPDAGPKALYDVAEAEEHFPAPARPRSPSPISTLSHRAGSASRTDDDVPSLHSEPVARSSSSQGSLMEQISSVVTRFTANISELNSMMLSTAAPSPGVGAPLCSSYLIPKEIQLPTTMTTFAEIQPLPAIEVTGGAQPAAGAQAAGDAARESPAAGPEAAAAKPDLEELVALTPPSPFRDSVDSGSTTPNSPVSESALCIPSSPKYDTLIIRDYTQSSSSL
T3 sequence (P23385 19-1199 D322I): as the sequence (P23385 19-1199 E325I) above, with D304I, I307E counted along it
T4 sequence (P23385 19-1199 D318I): as the sequence (P23385 19-1199 E325I) above, with D300I, I307E counted along it

## NC(C(=O)O)c1cc(O)cc(O)c1 (stereo not shown) [3,5-DHPG]
mGluR5 [1]
  Affinity (pIC50): 5.4 pIC50
mGluR1 [2]
  Affinity (pKi): 5.8 pKi

## CCCOC(=O)c1[nH]c(C)c(C(=O)OC(C)C(C)(C)C)c1C (stereo not shown) [3,5-dimethyl PPP]
mGluR1 [2]
  Affinity (pIC50): 7.8 pIC50

## Cc1cc(C(=O)O)sc1C(N)C(=O)O (stereo not shown) [3-MATIDA]
mGluR1 [2]
  Affinity (pIC50): 5.2 pIC50

## N[C@@]1(C(=O)O)CC[C@@H](C(=O)O)C1 [(1S,3R)-ACPD]
mGluR5 [1]
  Affinity (pIC50): 5.7 pIC50

## N[C@H](C(=O)O)c1cccc(O)c1 [(S)-3HPG]
mGluR5 [1]
  Affinity (pIC50): 5 pIC50
mGluR1 [2]
  Affinity (pIC50): 4.9 pIC50

## N[C@H](C(=O)O)c1ccc(C(=O)O)c(O)c1 [(S)-4C3HPG]
mGluR5 [1]
  Affinity (pIC50): 5.6 pIC50
mGluR1 [3]
  Affinity (pKi): 5.8-6.0 pKi

## N[C@H](C(=O)O)c1ccc(C(=O)O)cc1 [(S)-4CPG]
mGluR5 [1]
  Affinity (pIC50): 4.6 pIC50
mGluR1 [2]
  Affinity (pKi): 5.4 pKi

## N[C@H](C(=O)O)C12CC(C(=O)O)(C1)C2 [(S)-(+)-CBPG]
mGluR1 [2]
  Affinity (pIC50): 4.2 pIC50

## N[C@H](C(=O)O)C12CC(c3nn[nH]n3)(C1)C2 [(S)-TBPG]
mGluR1 [2]
  Affinity (pIC50): 4.2 pIC50

## C[C@@](N)(C(=O)O)c1ccc(C(=O)O)cc1 [(s)-MCPG, (S)-α-Methyl-4-carboxyphenylglycine]
mGluR5 [1]
  Affinity (pIC50): 3.7 pIC50
WT mGluR1α; 1.5 mM (s)-MCPG, 5 μM L-Glu
  Inhibition of activation of mGluR1α by L-Glu: entirely blocks
WT mGluR1α; 2.0 mM MCPG, 5 mM [Ca^2+]o
  Inhibition of responsiveness of mGluR1α to [Ca^2+]o: does not completely inhibit
mGluR1 [2]
  Affinity (pKi): 3.8 pKi

## CN(C)c1ccnc2sc3c(=O)n(N4CCCCCC4)cnc3c12 [A841720]
mGluR1 [3]
  Affinity (pIC50): 8 pIC50

## CN(C)c1nc(N)c(C(=O)Nc2ccccn2)nc1Cl [ACDPP]
mGluR5 [4]
  Affinity (pIC50): 6.9 pIC50

## O=C(c1ccc(F)cc1)N1CCC[C@H](c2nc(-c3ccc(F)cc3)no2)C1 [ADX-47273]
mGluR5 [1]
  Affinity (pIC50): 6.5 pIC50

## NC1(C(=O)O)CCc2cc(C(=O)O)ccc21 (stereo not shown) [AIDA]
mGluR1 [3]
  Affinity (pA2): 4.2 pA2
mGluR1 [2]
  Affinity (pKi): 4 pKi

## C=C1C[C@@H]2COC(=O)[C@]2(Cc2ccc3ccccc3c2)C1 [BAY 367620]
mGluR1 [2]
  Affinity (pIC50): 6.8-8.0 pIC50

## COc1cc(-c2nc3ccccc3o2)ccc1CC#N [BOMA]
mGluR5 [4]
  Affinity (pKi): 8.5 pKi

## NC(C(=O)O)c1cc(O)ccc1Cl (stereo not shown) [CHPG]
mGluR5 [4]
  Affinity (pIC50): 3.4 pIC50

## N[C@H](C(=O)O)C1[C@@H](C(=O)O)[C@@H]1C(=O)O (stereo partly shown) [DCG-IV]
mGluR5 [1]
  Affinity (pIC50): 4.7 pIC50
mGluR1 [2]
  Affinity (pKi): 4.1 pKi

## Fc1cccc(/C=N/N=C/c2cccc(F)c2)c1 [DFB]
mGluR5 [4]
  Affinity (pIC50): 5.6-8.5 pIC50

## CCCOC(=O)c1[nH]c(C)c(C(=O)O[C@@H](C)C(C)(C)C)c1C [DM-PPP]
mGluR1 [2]
  Affinity (pIC50): 7.8 pIC50

## CCn1c(C)nc(N2CCc3ccccc3CC2)c(C#N)c1=O [EM-TBPC]
mGluR1 [2]
  Affinity (pIC50): 6.9 pIC50

## N[C@H](C(=O)O)[C@H]1C[C@@H]1C(=O)O [L-CCG-I]
mGluR5 [1]
  Affinity (pIC50): 5.8 pIC50
mGluR1 [2]
  Affinity (pKi): 5.6 pKi

## N[C@@H](CCC(=O)O)C(=O)O [L-Glu, L-glutamic acid]
mGluR5 [5]; 0.5 or 1.8 mM extracellular Ca^2+
  Percentage of cells with oscillation as a response to L-Glu: more than 50%
mGluR5 [5]; without extracellular Ca^2+
  Percentage of cells with oscillation as a response to L-Glu: less than 10%

## N[C@@H](Cn1oc(=O)[nH]c1=O)C(=O)O [L-Quis, L-Quisqualate]
mGluR1α D322I; [Ca^2+]o 0 mM
  Emax: 80 ± 16%
mGluR1α D322I; [Ca^2+]o 1.8 mM
  Emax: 96 ± 21%
mGluR1α D318I
  [^3H]-L-Quis binding to the mutant: eliminates L-Quis-binding
mGluR5 [1]
  Affinity (pIC50): 7.5 pIC50
WT mGluR1α; HEK293, read-out: Maximal Response to L-Quis
  Emax: 37 ± 4%
mGluR1α E325I; [Ca^2+]o 0 mM
  Emax: 60 ± 8%
mGluR1α E325I; [Ca^2+]o 1.8 mM
  Emax: 88 ± 8%
mGluR5 [5]; 0 mM Ca^2+ bath solution
  mGluR5 response initiated by L-Quis: almost could not initiate any mGluR5 response; also recorded: hardly showed any response
mGluR5 [5]; absence of extracellular Ca^2+ addition
  Percentage of cells with L-Quis-triggered response: less than 20%
mGluR5 [5]; with addition of extracellular Ca^2+, 5 nM L-Quis
  Percentage of cells with L-Quis-triggered response: more than 60%

## Cc1cc(C(=O)O)ccc1[C@H](N)C(=O)O [LY367385]
mGluR1 [3]
  Affinity (pIC50): 5.1 pIC50
mGluR1 [2]
  Affinity (pKi): 5.9 pKi

## COc1ccc(Nc2ncnc3ccc(OC)cc23)cc1 [LY456236]
mGluR1 [3]
  Affinity (pIC50): 6.9 pIC50

## Cc1nc(C#Cc2cccc(C#N)c2)cs1 [MTEB]
mGluR5 [4]
  Affinity (pIC50): 8.7 pIC50

## O=C(NC12CC3CC(CC(C3)C1)C2)c1cnc2ccccc2n1 [NPS2390]
mGluR1 [2]
  Affinity (pKi): 8.9 pKi

## O=C(Cc1ccccc1)c1ccc2nc3c(cc2c1)CCCO3 [R214127]
mGluR1 [3]
  Affinity (pIC50): 8.9 pIC50
mGluR1 [2]
  Affinity (pKi): 8.9 pKi

## CCOC(=O)NC(=O)C(c1ccccc1)c1ccccc1 [Ro01-6128]
mGluR1 [2]
  Affinity (pKi): 7.5-7.7 pKi

## Cc1ccc(S(=O)(=O)N2CCC[C@H]2c2ccc(F)cc2)cc1 [Ro67-7476]
mGluR1 [2]
  Affinity (pKi): 7.5-7.9 pKi

## CCCCOC(=O)NC(=O)C1c2ccccc2Oc2ccccc21 [Ro 67-4853, (9H-xanthene-9-carbonyl) carbamic acid butyl ester]
WT mGluR1α; [Ca^2+]o 0.5 mM
  Max. Res. to Ro 67-4853: 50 ± 8
WT mGluR1α; [Ca^2+]o 0.5 mM, pre-incubated with 0.5 mM Ca^2+ and 5 nM Ro 67-4853
  EC50: 20.7 nM
WT mGluR1α; [Ca^2+]o 1.8 mM
  Max. Res. to Ro 67-4853: 59 ± 4
  EC50: 10 nM
mGluR5 [5]; 0.5 mM Ca^2+, 5 nM
  Stimulation of mGluR5 (intracellular Ca^2+ oscillation): could lead to the stimulation of mGluR5; also recorded: caused high frequency Ca^2+ oscillation
mGluR5 [5]; no Ca^2+ in the bath solution, 5 to 100 nM
  Stimulation of mGluR5 (intracellular Ca^2+ response): no intracellular Ca^2+ response was observed; also recorded: could not stimulate mGluR5
mGluR1 [2]
  Affinity (pKi): 5.1 pKi

## Cc1ccc(O)c(N=Nc2ccccc2)n1 [SIB-1757]
mGluR5 [4]
  Affinity (pIC50): 6.0-6.4 pIC50

## Cc1cccc(/C=C/c2ccccc2)n1 [SIB-1893]
mGluR5 [4]
  Affinity (pIC50): 5.9-6.5 pIC50

## O=C(Nc1cc(-c2ccccc2)nn1-c1ccccc1F)c1ccc([N+](=O)[O-])cc1 [VU-1545]
mGluR5 [4]
  Affinity (pEC50): 8 pEC50

## Cc1c(C(=O)N(C)C2CCCCC2)sc2nc3ccc(N)cc3n12 [YM298198]
mGluR1 [2]
  Affinity (pIC50): 7.8 pIC50

## CN1CC(=O)NC1=NC(=O)Nc1cccc(Cl)c1 [fenobam]
mGluR5 [4]
  Affinity (pIC50): 7.2 pIC50

## N[C@H](C(=O)O)c1cc(O)no1 [ibotenate]
mGluR5 [1]
  Affinity (pIC50): 5.7 pIC50
mGluR1 [2]
  Affinity (pKi): 5.9-6.4 pKi

Source: patent US10449216B2, “Modulating drug effects against metabotropic glutamate receptor with extracellular calcium” (GEORGIA STATE UNIVERSITY RESEARCH FOUNDATION, INC., priority 2013, dated 2019)
